Results published in patent publication US11590110B2, “Compositions and methods for reactivating latent immunodeficiency virus using a GSK-3 inhibitor” (priority 2017, dated 2023).

Tests used:
CD4+ T cells [1] = test: Example 5: GLUT1 surface expression, flow cytometry; type: cell-based, human; conditions: 2 or 24 hours; 1 μM tideglusib; CD4+ T cells of three HIV-negative donors
Description: Freshly isolated PBMCs or CD4^+ T cells were stained for viability, using the fixable viability dye Zombie violet (1:50, Biolegend) according to the manufacturer's recommendation. Surface staining was performed with the following antibodies at 1:100 dilutions: CD3-PE-Cy7, CD4-APC-Cy7, CD69-FITC, CD25-PE (all 1:100, Biolegend), and Glut-1-Ax647 (BD Bioscience, 566580) in staining buffer for 20 min on ice and cells were fixed in 1% PFA-containing PBS. All flow analysis was performed on the LSRII (BD Biosciences) using FlowJo software (v.10.4.2). Color compensations were performed using single-stained samples for each of the fluorochromes used. Data were analyzed using FlowJo software (TreeStar, San Carlos, Calif.).
Changes to the metabolism of resting CD4^+ T-cells by tideglusib were studied. […] […].

[2] = system: latent HIV-1 in GALT cultures from HIV-positive donors on suppressive ART; test: Example 5: latency reversion in gut-associated lymphoid tissue (GALT) cultures, ddPCR; type: cell-based
Description: PBMCs and CD4^+ T cells from HIV-positive donors were cultured and treated in the presence of 5 μM saquinavir. For gut-associated lymphoid tissue (GALT) cells, to remove the epithelium and epithelial cells, 30 tissue biopsy tissue pieces were incubated in pre-warmed buffer containing 10 mM DTT, 5 mM EDTA, 10 mM HEPES and 5% FBS for 20 minutes at 37° C. under continuous rotation, vortexed and the supernatant aspirated. Tissue pieces were then incubated for a second time in the same pre-warmed buffer for a further 20 minutes at 37° C. under continuous rotation. The sample was again vortexed, and then rinsed for 20 minutes at 37° C. under continuous rotation with RMPI, 10 mM HEPES and 5% FBS. To then isolate lymphocytes from the lamina propria, a second, pre-warmed buffer containing RPMI, 10 mM HEPES, 7.5 µg/ml DNAse and 5% FBS was applied to the tissue pieces, and these were again incubated for 20 minutes at 37° C. under continuous rotation. […]
5 million resting CD4^+ T lymphocytes were plated and either left unstimulated (media alone plus DMSO), stimulated with anti-CD3/CD28 coated or incubated with LRAs for 48 hours. […] Subsequently, ddPCR was applied to quantify pre-amplified cDNA. […] Finally, samples were amplified on a BioRad C1000 Thermocycler and analyzed using a BioRad QX100 ddPCR Reader. […]

CD4+ T cells [3] = test: Example 5: lactate production analysis; type: cell-based, human; conditions: 24 hours of treatment
Description: Subsequently, media of the treated samples were tested for production of L-lactated using a Glycolysis Cell-Based Assay Kit (Cayman Chemical). This test measures the quantity of formazan, an artificial chromogenic dye that results from the reduction of tetrazolium salts in the presence of NADH in the culture media. Colored formazan absorbs between 490 and 520 nm and can be detected by a plate reader. Since lactate dehydrogenase catalyzes the reaction between NAD+ and lactate, yielding pyruvate and NADH, which directly reduces the tetrazolium salt, the quantity of formazan produced is proportional to the quantity of L-lactate in the culture medium, and is thus an indirect measurement of glycolysis. In order to determine specific L-Lactate concentration, a standard curve was obtained analyzing absorbance of known concentration of L-lactate as indicated in the manufacturer's protocol.

CD8+ T cells = test: Example 5: CD8 T-cell viability and cytotoxic effector functions; type: cell-based, human
Description: After drug treatment, human PBMCs were cultured in complete RPMI in the presence of CD107a-BV650 (1:50, 328637, BioLegend) or CD107a-FITC antibodies (1:50, 555800, BD Bioscience) and PMA/ionomycin (50 ng/ml and 1 uM) dor 3.5 hours, adding Brefeldin A and Monensin (eBioscience) for the last hour. Cells were subsequently stained for viability using the viability dyes eFluor 506, (eBioscience) according to the provided protocol. After surface marker staining with the following antibodies (all at 1:100 dilution): CD3-APC-H7 (560176; BD Biosciences), CD8-V450 (560347; BD Biosciences), CD45RA-APC (17-0458; eBioscience), and CCR7-PE-Cy7 (557648; BD Biosciences), cells were permeabilized and fixed using the Foxp3/Transcription Factor Fixation/Permeabilization Concentrate and Diluent kit (eBioscience). Intracellular staining was performed with IFN-γ-PerCP-Cy5.5 antibody (1:100, 560704, BD Bioscience) in FOXP3 perm/wash buffer for 1 h at 4° C. After washing and fixation of the cells in 1% paraformaldehyde/PBS, cells were analyzed by flow cytometry. Final data stems from having gated on CD8hi- and CD8lo-expressing T cells.

[4] = pre-treatment 1 μM 48 hours, then PMA/ionomycin

## O=c1sn(-c2cccc3ccccc23)c(=O)n1Cc1ccccc1 [Tideglusib, 4-benzyl-2-(naphthalen-1-yl)-1,2,4-thiadiazolidine-3,5-dione]
CD4+ T cells [1]
  GLUT1 surface expression over the untreated control: did not increase GLUT1 surface expression
[2]; 1 μM, 24 hours, relative to untreated control
  virus-associated mRNA in culture supernatant, median value: 20.69 fold
[2]; GALT cultures
  virus release vs untreated control: over 20 fold
CD4+ T cells [3]
  L-lactate in the culture media: did not result in an increase of L-lactate
CD8+ T cells; 48 hours
  viability of CD8+ T cells: did not reduce viability
CD8+ T cells; [4]
  IFN-γ production in CD8+ T cells: increase in IFN-γ production
  surface expression of CD107a in CD8+ T cells: increased surface expression of CD107a
